The compounds below were run against T1, human MCH receptor (Homo sapiens, UniProt Q99705) (assay: calcium immobilization assay: functional IC50 of MCH1R antagonists (cellular calcium flux, FLIPR)). Conditions: recombinant HEK293 cell line expressing the human MCH receptor, calcium flux after addition of agonist (MCH).
T1 construct: expressed in transfected cells
Assay type: cell-based
Source text: Influence on the MCH receptor in vitro; determination of functional IC50 values of MCH1R antagonists
Cloning of the cDNA for the human MCH receptor, preparation of a recombinant HEK293 cell line which expresses the human MCH receptor, and functional measurements with the recombinant cell line took place in analogy to the description by Audinot et al. (J. Biol. Chem. 276, 13554-13562, 2001). A difference from the reference was, however, the use of the plasmid pEAK8 from EDGE Biosystems (JSA) for the construction of the expression vector. The host used for the transfection was a transformed HEK cell line named “PEAK Stable Cells” (likewise from EDGE Biosystems). Functional measurements of the cellular calcium flux after addition of agonist (MCH) in the presence of ligand of the invention took place with the aid of the FLIPR apparatus from Molecular Devices (USA), using protocols of the apparatus manufacturer. The compounds of the invention show a significant inhibition (>30%) of the signal induced by the agonist at a concentration of 100 μM, preferably at 10 μM, particularly preferably at 1 μM, very particularly preferably at 100 nM and even more particularly preferably at 10 nM.

T1 sequence (Q99705 whole entry): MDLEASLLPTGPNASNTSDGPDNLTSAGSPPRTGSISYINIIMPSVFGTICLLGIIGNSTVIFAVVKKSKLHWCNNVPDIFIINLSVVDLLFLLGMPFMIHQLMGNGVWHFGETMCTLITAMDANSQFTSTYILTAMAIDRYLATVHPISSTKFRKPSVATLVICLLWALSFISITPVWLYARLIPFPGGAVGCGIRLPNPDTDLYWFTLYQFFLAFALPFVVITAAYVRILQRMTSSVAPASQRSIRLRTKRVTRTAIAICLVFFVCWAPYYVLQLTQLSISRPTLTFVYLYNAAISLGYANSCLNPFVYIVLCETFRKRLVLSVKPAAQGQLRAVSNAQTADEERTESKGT

| IC50 [nM] | Structure (SMILES) |
| --- | --- |
| 240 | CCC(O)CCc1cc2ncn(-c3ccc(N4CC[C@@H](N5CCCC5)C4)c(F)c3)c(=O)c2s1 (stereo partly drawn) [Example 63] |
| 2950 | CCO/C=C\c1cc2ncn(-c3ccc(N4CCCN(C)CC4)cc3)c(=O)c2s1 [Example 74, 6-((Z)-2-Ethoxyvinyl)-3-[4-(4-methyl[1,4]diazepan-1-yl)phenyl]-3H-thieno[3,2-d]pyrimidin-4-one] |
| 560 | COCCCc1cc2ncn(-c3ccc(N4CC[C@@H](N5CCCC5)C4)c(F)c3)c(=O)c2s1 [Example 61] |
| 1330 | CN(C)[C@@H]1CCN(c2ccc(-n3cnc4cc(N5CCCCC5)sc4c3=O)cc2)C1 [Example 65, 3-[4-((R)-3-Dimethylaminopyrrolidin-1-yl)phenyl]-6-piperidin-1-yl-3H-thieno[3,2-d]pyrimidin-4-one] |
| 9030 | CN1CCCN(c2ccc(-n3cnc4cc(C(O)C5CCCC5)sc4c3=O)cc2)CC1 (stereo not drawn) [Example 77, 6-(Cyclopentylhydroxymethyl)-3-[4-(4-methyl[1,4]diazepan-1-yl)phenyl]-3H-thieno[3,2-d]-pyrimidin-4-one] |
| 600 | CN(C)C1CCN(c2ccc(-n3cnc4cc(COCC5CC5)sc4c3=O)cc2)C1 (stereo not drawn) [Example 96, 6-Cyclopropylmethoxymethyl-3-[4-(3-dimethylamino-pyrrolidin-1-yl)-phenyl]-3H-thieno[3,2-d]pyrimidin-4-one] |
| 8740 | CN1CCCN(c2ccc(-n3cnc4cc(C(=O)C5CCCC5)sc4c3=O)cc2)CC1 [Example 76, 6-Cyclopentanecarbonyl-3-[4-(4-methyl[1,4]diazepan-1-yl)phenyl]-3H-thieno[3,2-d]pyrimidin-4-one] |
| 340 | CCCOCc1cc2ncn(-c3ccc(N4CCC(N(C)C)C4)cc3)c(=O)c2s1 (stereo not drawn) [Example 95, 3-[4-(3-Dimethylamino-pyrrolidin-1-yl)-phenyl]-6-propoxymethyl-3H-thieno[3,2-d]pyrimidin-4-one] |

The next lines start with the compound.

| Structure (SMILES) | IC50 [nM] |
| --- | --- |
| CC(O)C#Cc1cc2ncn(-c3ccc(N4CC[C@@H](N(C)C)C4)c(F)c3)c(=O)c2s1 (stereo partly drawn) [Example 49] | 180 |
| CC(O)C#Cc1cc2ncn(-c3ccc(N4CC[C@@H](N(C)CCS(C)(=O)=O)C4)cc3)c(=O)c2s1 (stereo partly drawn) [Example 38] | 440 |
| C[C@@H](O)C#Cc1cc2ncn(-c3ccc(N4CC[C@@H](N5CCCC5)C4)c(F)c3)c(=O)c2s1 [Example 42] | 180 |
| COCC#Cc1cc2ncn(-c3ccc(N4CC[C@@H](N(C)CCS(C)(=O)=O)C4)cc3)c(=O)c2s1 [Example 39] | 920 |
| CN(CCS(C)(=O)=O)[C@@H]1CCN(c2ccc(-n3cnc4cc(CCC5CC5)sc4c3=O)cc2)C1 [Example 50, 6-(2-Cyclopropylethyl)-3-(4-{(R)-3-[(2-methanesulfonylethyl)methylamino]pyrrolidin-1-yl}phenyl)-3H-thieno[3,2-d]pyrimidin-4-one] | 320 |
| CCC(O)C#Cc1cc2ncn(-c3ccc(N4CC[C@@H](N(C)CCS(C)(=O)=O)C4)cc3)c(=O)c2s1 (stereo partly drawn) [Example 40] | 660 |
| CC(O)C#Cc1cc2ncn(-c3ccc(N4CC[C@@H](N(C)C)C4)cc3)c(=O)c2s1 (stereo partly drawn) [Example 30, 3-[4-((R)-3-Dimethylaminopyrrolidin-1-yl)phenyl]-6-(3-hydroxybut-1-ynyl)-3H-thieno[3,2-d]pyrimidin-4-one] | 380 |
| CC(C)C(O)C#Cc1cc2ncn(-c3ccc(N4CCCN(C)CC4)cc3)c(=O)c2s1 (stereo not drawn) [Example 26] | 1100 |
| CN(C)[C@@H]1CCN(c2ccc(-n3cnc4cc(C#CC5(O)CCCC5)sc4c3=O)cc2)C1 [Example 32] | 1350 |
| CN(C)[C@@H]1CCN(c2ccc(-n3cnc4cc(C#CC5CC5)sc4c3=O)cc2)C1 [Example 45, 6-Cyclopropylethynyl-3-[4-((R)-3-dimethylamino-pyrrolidin-1-yl)-phenyl]-3H-thieno[3,2-d]pyrimidin-4-one] | 110 |
| CS(=O)(=O)CCN1CCCN(c2ccc(-n3cnc4cc(C#CC5CC5)sc4c3=O)cc2)CC1 [Example 44, 6-Cyclopropylethynyl-3-{4-[4-(2-methanesulfonyl-ethyl)-[1,4]diazepan-1-yl]-phenyl}-3H-thieno[3,2-d]pyrimidin-4-one] | 740 |
| COCC#Cc1cc2ncn(-c3ccc(N4CC[C@@H](N(C)C)C4)c(F)c3)c(=O)c2s1 [Example 47] | 230 |
| COC(C)(C)CCc1cc2ncn(-c3ccc(N4CC[C@@H](N(C)C)C4)cc3)c(=O)c2s1 [Example 57] | 2090 |
